Measurements published in PubChem BioAssay (NCI).
Several values for one entry are separate records, joined by “and”; a condition that tells them apart may be missing. Equal values may be shown once.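 Each compound was tested at five concentrations against cells in 96-well plates for 48 hours. Abbreviation: GI50, concentration required for 50% inhibition of growth. TGI: concentration producing complete growth inhibition.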

What was measured:
Assay in all cases: DTP human tumour cell line panel, 48 h
HS 578T breast = test system: HS 578T breast
SK-MEL-5 melanoma = test system: SK-MEL-5 melanoma
OVCAR-3 ovarian = test system: OVCAR-3 ovarian
RXF 393 renal = test system: RXF 393 renal
NCI/ADR-RES ovarian = test system: NCI/ADR-RES ovarian
PC-3 prostate = test system: PC-3 prostate
UACC-257 melanoma = test system: UACC-257 melanoma

Compound | GI50 (HS 578T breast) [µM] | TGI (HS 578T breast) | GI50 (SK-MEL-5 melanoma) [µM] | TGI (SK-MEL-5 melanoma) | GI50 (OVCAR-3 ovarian) [µM] | TGI (OVCAR-3 ovarian) | GI50 (RXF 393 renal) [µM] | TGI (RXF 393 renal) [µM] | GI50 (NCI/ADR-RES ovarian) [µM] | TGI (NCI/ADR-RES ovarian) | GI50 (PC-3 prostate) [µM] | TGI (PC-3 prostate) | GI50 (UACC-257 melanoma) [µM] | TGI (UACC-257 melanoma)
O=C1C(Nc2ccc(Cl)cc2)=C(I)C(=O)c2ncccc21 | 2.13 | 6.44 µM | 1.55 | 2.91 µM | 0.247 | 1.03 µM | 1.69 | 3.12 | 2.01 | 5.37 µM | 1.12 | 2.6 µM | 1.29 | 2.6 µM
O=C(Nc1ccc(Br)cc1F)c1cc(I)ccc1O | 2.43 | 9.1 µM | 1.48 | 2.98 µM | 3.06 | > 100 µM | 2.55 | 7.54 | 2.63 | 8.5 µM | 2.31 | 7.86 µM | 2.43 | 6.88 µM
COc1ccc2c(CN3CCCC[C@H]3C(=O)O)cc3cc4c(cc3c2c1)OCO4 | 1.53 | 4.4 µM | 1.25 | 2.5 µM | 0.688 | 3.41 µM | 0.414 | 2.03 | 7.11 | 65.7 µM | 2.53 | 7.14 µM | – | –
NC(=O)N/N=C1/CCC(O)CC1CC(=O)O (stereo not drawn) | – | > 100 µM | – | > 100 µM | – | > 100 µM | – | > 100 | – | > 100 µM | – | > 100 µM | – | > 100 µM
Cn1ncnc1[C@H]1c2n[nH]c(=O)c3cc(F)cc(c23)N[C@@H]1c1ccc(F)cc1 | > 100 | > 100 µM | > 100 | > 100 µM | > 100 | > 100 µM | 25.9 | > 100 | > 100 | > 100 µM | > 100 | > 100 µM | > 100 | > 100 µM
O=C1CCCCCCCCCCC1CN1CCCC1 (stereo not drawn) | – | 84.7 µM | – | 31.6 µM | – | > 100 µM | – | 65.4 | – | > 100 µM | – | > 100 µM | – | 49.3 µM
Cc1ccc(S(=O)(=O)c2c(COC(=O)c3cccc(C)c3)c(-c3ccccc3)nn2C)cc1 | > 100 | > 100 µM | > 100 | > 100 µM | > 100 | > 100 µM | > 100 | > 100 | > 100 | > 100 µM | > 100 | > 100 µM | > 100 | > 100 µM
O=C1Nc2ccc(Br)cc2C1=Nc1cccnc1 | – | 60.5 µM | – | 31.8 µM | – | 44.3 µM | – | 29.1 | – | 87.1 µM | – | 41.2 µM | – | 55.9 µM
CSC1=C(N)C(=O)c2[nH]cc(CO)c2C1=N | 0.282 | 0.796 µM | 0.0451 | 0.164 µM | 0.134 | 0.346 µM | 0.281 | 0.85 | 0.239 | 0.781 µM | 0.212 | 0.916 µM | 0.134 | 0.267 µM
C[C@H]1CC[C@@]2(NC1)O[C@H]1C[C@H]3[C@@H]4CC[C@H]5C[C@@H](O)CC[C@]5(C)[C@H]4CC[C@]3(C)[C@H]1[C@@H]2C | 21.8 | 50 µM and > 100 µM | 11.7 | 23.7 µM and > 100 µM | 9.61 | 22.2 µM and > 100 µM | > 50 | > 50 | 8.71 | 22.4 µM and > 100 µM | 12.5 | 42 µM and > 100 µM | 22 | 50 µM and > 100 µM
COc1cc2nc(N3CCCC3)nc(NCc3ccccc3)c2cc1OC | 1.99 | 4.5 µM | 1.65 | 3.12 µM | 2.27 | 5.53 µM | 1.41 | 3.06 | 3.71 | 18.7 µM | 3.08 | 15.2 µM | 1.96 | 4.04 µM
Nc1ncnc2c1N=C(c1ccc3c(c1)OCO3)CC(c1ccc([N+](=O)[O-])cc1)N2 (stereo not drawn) | 9.18 | > 100 µM | 82.9 | > 100 µM | 88.3 | > 100 µM | 7.19 | 63.1 | 55.4 | > 100 µM | 31.1 | > 100 µM | > 100 | > 100 µM
CC1=C(c2cccc(O)c2)[C@H](c2ccc(OCCN3CC(CF)C3)cc2)Oc2ccc(O)cc21 | 5.12 | 26.4 µM | 3.58 | 12.8 µM | 10.8 | 24.4 µM | 3.46 | 12.1 | 15 | 31 µM | 5.8 | 20.9 µM | 4.98 | 18.2 µM
CN1CCN(C(=O)C(C)(C)c2ccc(C(=O)Nc3cn4cc(-c5ccncc5)ccc4n3)cc2)CC1 | 0.327 | 3.66 µM | 0.188 | 0.382 µM | 0.126 | 0.431 µM | 0.316 | 1.01 | 0.917 | > 100 µM | 0.382 | > 70.2 µM | 0.296 | 15.1 µM
C[C@@H]1[C@H](C)N1CC(O)Cn1ccnc1[N+](=O)[O-] (stereo partly drawn) | – | > 100 µM | – | > 100 µM | – | > 100 µM | – | > 100 | – | > 100 µM | – | > 100 µM | – | > 100 µM
Cc1cc2c(C(C)C)c(O)c(O)cc2c(O)c1-c1c(C)cc2c(C(C)C)c(O)c(O)cc2c1O | 19.3 | 47.6 µM | 12.6 | 26 µM | 14.4 | 29.8 µM | 15.1 | 33.5 | 20.7 | 48.9 µM | 12.4 | 27.7 µM | 26.6 | 65 µM
O=C1OCC2=C1C(c1cccc(Cl)c1)c1cc3c(cc1N2CCO)OCCO3 (stereo not drawn) | 0.0747 | > 78.2 µM | 0.036 | 0.507 µM | 0.0251 | 0.0618 µM | 0.0294 | 0.174 | 0.0631 | 0.373 µM | 0.0502 | 13.1 µM | 0.0364 | 28.2 µM
